Experimental data: article PMC5932348, “Identification and Characterization of c-di-GMP Metabolic Enzymes of Leptospira interrogans and c-di-GMP Fluctuations After Thermal Shift and Infection” (Frontiers in Microbiology, 2018)

Tests used:
Assay in all cases: RP-HPLC product detection, […] nm
Type in all cases: biochemical
LA2528 = target: T1, LA2528 (Leptospira interrogans, UniProt Q8F383); conditions: 100 uM GTP; pH 7.8; 10 mM MgCl2; 28 C, 1 h; product c-di-GMP
T1 construct: gene pleD; full-length REC-GGDEF protein, pET-28a or pET-32a, E. coli BL21(DE3), Ni-NTA

LA1483 = target: T2, LA1483 (Leptospira interrogans, UniProt Q8F629); conditions: 100 uM GTP; pH 7.8; 10 mM MgCl2; 28 C, 1 h; product c-di-GMP
T2 construct: gene LA_1483; full-length GAF-GGDEF protein, pET-28a or pET-32a, E. coli BL21(DE3), Ni-NTA

LA2383 = target: T3, LA2383 (Leptospira interrogans, UniProt Q8F3L8); conditions: 10 uM substrate; pH 8.5; 5 mM MgCl2; 10 mM MnCl2; 28 C, 1 h
T3 construct: gene LA_2383; HD-GYP protein lacking the conserved HD residues, pET-28a or pET-32a, E. coli BL21(DE3), Ni-NTA
T3 sequence (Q8F3L8 entry or part of it): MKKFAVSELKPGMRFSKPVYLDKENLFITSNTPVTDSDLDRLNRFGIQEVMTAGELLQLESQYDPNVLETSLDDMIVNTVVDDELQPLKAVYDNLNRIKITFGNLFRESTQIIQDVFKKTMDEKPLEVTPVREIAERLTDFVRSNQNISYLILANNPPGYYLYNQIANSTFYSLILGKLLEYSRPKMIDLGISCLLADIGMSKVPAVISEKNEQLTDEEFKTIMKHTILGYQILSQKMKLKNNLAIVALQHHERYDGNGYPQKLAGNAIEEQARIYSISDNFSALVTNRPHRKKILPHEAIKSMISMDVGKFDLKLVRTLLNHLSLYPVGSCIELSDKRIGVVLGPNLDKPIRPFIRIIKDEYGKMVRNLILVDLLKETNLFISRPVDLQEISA

T1 sequence (Q8F383 entry or part of it): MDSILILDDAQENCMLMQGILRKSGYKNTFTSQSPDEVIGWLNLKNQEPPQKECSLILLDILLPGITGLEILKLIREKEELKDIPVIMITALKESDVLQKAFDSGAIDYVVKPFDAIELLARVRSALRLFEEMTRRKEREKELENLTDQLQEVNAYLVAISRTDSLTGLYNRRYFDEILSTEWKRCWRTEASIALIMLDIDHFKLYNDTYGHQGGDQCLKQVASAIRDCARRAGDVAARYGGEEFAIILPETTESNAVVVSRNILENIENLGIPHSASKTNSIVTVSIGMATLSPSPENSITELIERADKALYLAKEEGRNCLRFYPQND
T2 sequence (Q8F629 entry or part of it): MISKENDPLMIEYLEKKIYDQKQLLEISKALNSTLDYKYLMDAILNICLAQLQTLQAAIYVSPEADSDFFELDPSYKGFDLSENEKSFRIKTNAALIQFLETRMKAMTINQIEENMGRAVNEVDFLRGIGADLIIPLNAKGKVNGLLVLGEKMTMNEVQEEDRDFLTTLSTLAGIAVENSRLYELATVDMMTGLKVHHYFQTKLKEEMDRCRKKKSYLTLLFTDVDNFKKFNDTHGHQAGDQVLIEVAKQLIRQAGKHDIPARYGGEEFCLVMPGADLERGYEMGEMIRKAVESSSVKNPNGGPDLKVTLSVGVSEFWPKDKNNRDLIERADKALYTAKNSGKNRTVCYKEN

Structure (SMILES)	RP-HPLC product detection, 254 nm (LA2528)	RP-HPLC product detection, 254 nm (LA1483)	RP-HPLC product detection, 254 nm (LA2383)
Nc1nc2c(ncn2[C@@H]2O[C@H](COP(=O)(O)OP(=O)(O)OP(=O)(O)O)[C@@H](O)[C@H]2O)c(=O)[nH]1 [GTP]	they are able to utilize GTP to produce c-di-GMP	they are able to utilize GTP to produce c-di-GMP	
Nc1nc2c(ncn2[C@@H]2O[C@@H]3COP(=O)(O)O[C@H]4[C@@H](O)[C@H](n5cnc6c(=O)[nH]c(N)nc65)O[C@@H]4COP(=O)(O)O[C@H]3[C@H]2O)c(=O)[nH]1 [c-di-GMP]			LA2383 was able to hydrolyze both c-di-GMP and pGpG in vitro and produce GMP
Nc1nc2c(ncn2[C@@H]2O[C@H](COP(=O)(O)O[C@H]3[C@@H](O)[C@H](n4cnc5c(=O)[nH]c(N)nc54)O[C@@H]3COP(=O)(O)O)[C@@H](O)[C@H]2O)c(=O)[nH]1 [pGpG]			LA2383 was able to hydrolyze both c-di-GMP and pGpG in vitro and produce GMP
